The nature of test [1]: calcium carbonate scale inhibition (conductometric titration, supersaturation ratio Sr). How it is done: To a 100 mL beaker were added 60 mL of HPLC-grade water and 3 mL of 0.1 M calcium chloride. An appropriate amount (0.5-4 mL) of an aqueous solution of the inhibitor compound of Formula (I) to be tested was then added. The solution was magnetically stirred at a constant speed for all experiments. The sample was then titrated with 0.1 M sodium carbonate. After addition of each 0.2 mL aliquot of sodium carbonate titrant, the solution was mixed for 1 min and then the conductivity of the solution measured.
As titrant is added the conductivity increases in a linear fashion. When the supersaturation point is reached, the conductivity decreases and precipitation begins. This is considered the endpoint of the titration. The resulting titration endpoint volumes are used to calculate a relative supersaturation ratio (Sr). This is the ratio of the supersaturation of calcium carbonate in the presence of the compound of Formula (I) being tested to the value of the supersaturation of water without inhibitor (distilled water plus 3 mL of 0.1 M calcium chloride). Thus, compounds with Sr>1 are displaying scale inhibition.
The scale inhibition performance of various compounds of Formula (I) and comparative compounds were compared at the same molar concentration. These compounds were tested at 60 μM concentration except where noted otherwise. Compound numbers are from Table 1.

Test [2] in a line: mild steel corrosion inhibition, ASTM G31-72 coupon weight loss. How it is done:
(§1) Corrosion inhibition studies of various compounds of Formula (I) were conducted according to ASTM method G31-72 (2004). The following is the general test method.
(§2) Aqueous solutions of the test compound (900 mL) were prepared with city water for mild steel corrosion studies or a dilute sea salt solution (1000 ppm in deionized water) for copper corrosion studies. The solutions were magnetically stirred at a constant rate in a 1 L beaker and three coupons of either mild steel or copper were suspended in each beaker. After 5 days (steel) or 7 days (copper), the coupons were removed and cleaned according to ASTM method G1-03. Average weight loss was determined for each set of three coupons and then converted to corrosion rate in terms of mils per year (mpy).
These tests compare the corrosion inhibition of compounds of Formula (I), namely from Table 1, in the first set of comparisons, Compound A with Compound 13, and Compound B with Compound 1, and with 2-hydroxypropane-1,2,3-tricarboxylic acid. Thus five samples were tested relative to a blank and a standard, (1-hydroxyethan-1,1-diyl)bis(phosphonic acid), after 5 days at 26 μM concentrations. […] Concentrations were 26 μM.
Additional mild steel corrosion tests were performed at 130 μM concentration of compounds of Formula (I) and comparative compounds for 5 days. The next test compared the corrosion inhibition of Compound 8 with 2,3-dihydroxybutanedioic acid and Compound B, and Compound 4 with (1-hydroxyethan-1,1-diyl)bis(phosphonic acid) and Compound B. Also included was Compound 1 for reference. Concentrations in this set were 130 μM.

Test [3] can be described thus: copper corrosion inhibition, ASTM G31-72 coupon weight loss. Here is the method:
as §1, §2
The first test of copper corrosion inhibition compared Compound A with Compound 13 (from Table 1), 2-hydroxypropane-1,2,3-tricarboxylic acid, and a commercial inhibitor, Na-TAI.

Test [4] deals with sessile microbial population (biofilm on stainless steel washers). As to the kind of experiment: time-kill biocidal efficacy, hybrid planktonic-sessile procedure: sessile population. It counts as cell-based, natural mixed aerobic microbial population. As to conditions: 10 ppm Compound B, others equimolar; for Sessile, 20-24 h, % of Control / Sessile, 48-54 h, % of Control / Sessile, 120 h, % of Control / Sessile CFU/, 20-24 h / Sessile CFU/, 48-54 h / Sessile CFU/, 120 h / Sessile CFU/, Total / Sessile, Total, % of Control / activity at 10 ppm: exposure 110 minutes; for Sessile CFU/, 20-24 h / Sessile CFU/, 48-54 h / Sessile CFU/, 120 h / Sessile CFU/, Total: per washer; for reduction in the total sessile population: 110 minutes. Here is the method: An experiment was conducted to assess biocidal effectiveness of Compounds A and B and their respective Compounds 13 and 1 anion analogs. Time-kill tests were conducted using a hybrid planktonic-sessile procedure which allowed assessment of biocidal effectiveness against both planktonic and sessile microbial populations. A natural mixed aerobic microbial population in samples collected from an operating cooling tower was used as inoculum for the test. Biocide test concentration for Compound B was 10 ppm. All other products were tested at the equivalent molar concentration. Biocide exposure was 110 minutes. The following procedure was used which generally followed the biocidal testing method of Walter, R. W. and Cooke, L. […] A New Multifunctional Biocide Which Enhances Corrosion Inhibition,” NACE Paper 410, 1997. A water sample was collected from a cooling tower that contained a natural mixed population of microorganisms that grew at different rates when plated on Petrifilm. The populations of cells that grew on Petrifilm in 20-24 hours, 48-54 hours and at 120 hours were treated as separate populations. […] The washers were allowed seven days to develop a biofilm on their surface. Prior to chemical treatment, 10 mL aliquots of the CTW were removed from the beaker and placed into individual exposure test tubes along with a single washer. Test compounds were then added to the individual tubes at equimolar concentrations. All exposure tests including untreated controls were conducted in triplicate (i.e., three washers in separate exposure tubes). After addition of the test compound, the tube was briefly mixed by mild vortexing and again occasionally throughout the exposure time. Washer sonication to release organisms not released by the chemical treatment: […], the washer was removed from the tube, dipped 10 times in Letheen broth, then placed into a 9 mL tube of sterile Butterfields buffer, and sonicated for 8 minutes. Determination of cell population removed from washers by sonication: After the tube with washer was sonicated, a 1 mL aliquot was plated onto petrifilm and a serial dilution in Butterfields Buffer was performed with each dilution being plated to petrifilm. Determination of colony forming units (CFU) at different incubation times: After plating the various solutions on Petrifilm, the films were incubated at 36° C. for the first 24 hours. At 20 hours the […] read and CFU were recorded. This population was defined as a fast growing population. The […] then incubated for additional time either at 36° C. or room temperature and read at 54 hours. This second population is in addition to the fast growth rate population and was defined as moderate growth rate organisms. Incubation was continued and the […] again after 120 hours. This third population was also treated as separate from the fast and moderate growth rate populations and is referred to as the slow growth rate population. As noted above, each compound was evaluated in triplicate with three separate washers and the results were averaged. Average CFU/mL values were used to calculate total planktonic test population (CFU/10 mL) and total sessile test population (CFU/washer) in each test system.

Setting [5] is: 130 μM, Table 5 (blank 12.5 mpy).
Setting [6] is: 5 days, 130 μM, Table 4 (blank 24 mpy).

Several values for one entry are separate records, joined by “and”; a condition that tells them apart may be missing. Identical values can stand only once. Like-named read-outs stand apart in the source and are kept apart here.

As to `CCCCCCCCCCOCCCN.O=C(O)CC(O)(CC(=O)O)C(=O)O` [Compound 1, 2-hydroxypropane-1,2,3-tricarboxylic acid salt of aminopropyloxydecane], the “Sr (supersaturation ratio)” value in test [1] (60 μM) was 1.4. In test [2] (setting [5]), the “Inhibition relative to blank” value was found to be 87%. Moreover, the “Inhibition relative to blank” value in test [2] (5 days, 26 μM, Table 3) is reported as 60%. In test [2] (setting [6]), the “Inhibition relative to blank” value stood at 88%. Moreover, the “Inhibition relative to blank” value in test [3] (42 μM, Table 7) came to 54%. In test [4] (20-24 h incubation), the “Sessile, 20-24 h, % of Control” value is given as 104.9% and the “Sessile CFU/, 20-24 h” value worked out at 234 CFU/. Besides, in test [4] (48-54 h incubation), the “Sessile, 48-54 h, % of Control” value came to 4.4% and the “Sessile CFU/, 48-54 h” value is given as 36,000 CFU/. Also, in test [4] (120 h incubation), the “Sessile, 120 h, % of Control” value is on record as 38.7% and the “Sessile CFU/, 120 h” value is reported as 265,000 CFU/. In addition, in test [4] (total population), the “Sessile CFU/, Total” value was 301,000 CFU/ and the “Sessile, Total, % of Control” value came out at 19.9%.
For `CCCCCCCCCCSCCN.Cl` [Compound A, 2-(decylthio)ethanamine hydrochloride], the “Sr (supersaturation ratio)” value is reported as 1.0 in test [1] (60 μM) and 1.2 in test [1] (64 μM). The “Inhibition relative to blank” value in test [2] (5 days, 26 μM, Table 3, hydrochloride) is 3.3% and 3%; in test [3] (7 days, 17 μM, Table 6), 41%. Moreover, the “reduction in the total sessile population” value in test [4] came to 96%. Besides, the activity at 10 ppm in test [4] (20-24 h incubation, read-out: Sessile, 20-24 h, % of Control) worked out at 182%; in test [4] (48-54 h incubation, read-out: Sessile, 48-54 h, % of Control), 0.04%; in test [4] (110 min, total population, read-out: Sessile, Total, % of Control), 4%; in test [4] (120 h incubation, read-out: Sessile, 120 h, % of Control) it was 8.8%. The “Sessile CFU/, 20-24 h” value in test [4] (20-24 h incubation) was determined as 405 CFU/. In test [4] (48-54 h incubation), the “Sessile CFU/, 48-54 h” value is on record as 360 CFU/. Besides, the “Sessile CFU/, 120 h” value in test [4] (120 h incubation) was 60,000 CFU/. In test [4] (total population), the “Sessile CFU/, Total” value is listed as 60,800 CFU/.
Take `CC(=O)O.CCCCCCCCCCOCCCN` [Compound B, ethanoic acid salt of aminopropyloxydecane]: the “Sr (supersaturation ratio)” value in test [1] (60 μM) was 1.0. In addition, the “scale inhibition (in words)” value in test [1] (about 60 μM) is “no scale inhibition”. In addition, the “Inhibition relative to blank” value in test [2] (setting [5]) is −1%. For the same compound, the “Inhibition relative to blank” value in test [2] (5 days, 26 μM, Table 3, 26 µM) was 1.6% and 2%. The “Inhibition relative to blank” value in test [2] (setting [6]) is given as −1%. In test [3] (42 μM, Table 7), the “Inhibition relative to blank” value is reported as 32%. In addition, the “reduction in the total sessile population” value in test [4] was 80%. In test [4] (20-24 h incubation), the “Sessile, 20-24 h, % of Control” value is reported as 92.8% and the “Sessile CFU/, 20-24 h” value was 207 CFU/. Moreover, in test [4] (48-54 h incubation), the “Sessile, 48-54 h, % of Control” value was determined as 6.0% and the “Sessile CFU/, 48-54 h” value was 49,200 CFU/. Moreover, in test [4] (120 h incubation), the “Sessile, 120 h, % of Control” value was 37.7% and the “Sessile CFU/, 120 h” value is 258,000 CFU/. Besides, in test [4] (total population), the “Sessile CFU/, Total” value is 307,000 CFU/ and the “Sessile, Total, % of Control” value came to 20.3%.

The values above are taken from patent publication US9919941B2, “Multiple uses of amine salts for industrial water treatment” (AMSA, Inc., priority 2012, dated 2018).
